Source: patent publication EP4722219A1 (Gan & Lee Pharmaceuticals Co., Ltd., priority 2023, dated 2024)

Key:
Assay type in all cases: cell-based
ERα [1] = target: T1, ERα (Homo sapiens, UniProt P03372); assay: ERα degradation in T-47D cells (Western blot); settings: 4 hours
T1 sequence (P03372 1-595): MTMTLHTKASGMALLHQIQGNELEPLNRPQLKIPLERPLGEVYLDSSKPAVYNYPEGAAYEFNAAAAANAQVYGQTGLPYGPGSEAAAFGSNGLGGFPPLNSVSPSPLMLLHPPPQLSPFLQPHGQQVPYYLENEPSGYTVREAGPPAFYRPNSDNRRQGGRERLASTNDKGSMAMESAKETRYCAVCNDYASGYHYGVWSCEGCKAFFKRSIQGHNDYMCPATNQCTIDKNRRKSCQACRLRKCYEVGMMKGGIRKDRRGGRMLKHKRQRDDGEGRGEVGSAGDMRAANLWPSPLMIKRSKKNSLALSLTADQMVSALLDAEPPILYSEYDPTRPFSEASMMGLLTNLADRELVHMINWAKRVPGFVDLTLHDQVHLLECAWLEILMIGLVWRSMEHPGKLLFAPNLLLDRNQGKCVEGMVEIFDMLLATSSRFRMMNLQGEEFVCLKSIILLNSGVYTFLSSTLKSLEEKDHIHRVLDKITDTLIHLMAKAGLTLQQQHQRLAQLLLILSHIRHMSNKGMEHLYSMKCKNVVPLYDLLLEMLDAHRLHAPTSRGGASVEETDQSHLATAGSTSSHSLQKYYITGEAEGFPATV
Method in brief: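 ERα was quantified by immunoblot of RIPA lysates (20 µg total protein), normalised to an internal reference band, and degradation was expressed against control. Lysates came from T-47D cells plated at 3×10^5 cells/well and dosed 4 hours at 37°C with compound at 0.15-1000 nM final concentration.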

T-47D cells = assay: Inhibition of cell proliferation in T-47D cells (CCK-8); settings: 6 days treatment, CCK-8 cell viability
Method in brief: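 Viability by CCK-8 after a 6-day, 37 °C/5% CO2 exposure of T-47D cells (3,000/well, RPMI-1640 + 10% FBS) to graded PROTAC concentrations. Inhibition rates gave the IC50.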

MCF-7 cells = assay: Inhibition of cell proliferation in MCF-7 cells (CCK-8); settings: MCF-7 cell proliferation, 6 days treatment
Method in brief: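 IC50 from CCK-8 viability-based inhibition after 6-day treatment of MCF-7 cells (800 cells/well, 10% FBS DMEM, 37 °C, 5% CO2) with serially varied compound concentrations.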

ERα [2] = target: T1, ERα; assay: ERα degradation in MCF-7 cells (Western blot); design: host or cells: MCF-7; settings: 4 hours
Method in brief: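 ERα degradation was quantified by immunoblot densitometry, ERα signal divided by internal-reference signal and compared with control. Compounds were applied to MCF-7 cells for 4 hours at final concentrations of 0.15–1000 nM, with 20 µg total protein loaded per lane.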

Row | Compound | Degradation rate of ERα in T-47D cells (%) (ERα [1]; 1nM) | Degradation rate of ERα in T-47D cells (%) (ERα [1]; 10nM) | IC50 (T-47D cells) | IC50 (MCF-7 cells) | Degradation rate of ERα in MCF-7 cells (%) (ERα [2]; 1nM) | Degradation rate of ERα in MCF-7 cells (%) (ERα [2]; 10nM) | IC50 (T-47D cells; Homo sapiens, T47D, 144 h) | IC50 (MCF-7 cells; Homo sapiens, MCF7, 144 h)
1 | O=C1CC[C@H](NC(=O)c2ccc3c(c2)OCC[C@H]2CN(CC4CCC(OC5CCN(c6ccc([C@@H]7c8ccc(O)cc8CC[C@@H]7c7ccccc7)cc6)CC5)CC4)CCN32)C(=O)N1 (stereo partly drawn) [ER-P-45, (S)-N-((S)-2,6-dioxopiperidin-3-yl)-3-((4-((1-(4-((1R,2S)-6-hydroxy-2-phenyl-1,2,3,4-tetrahydronaphthalen-1-yl)phenyl)piperidin-4-yl)oxy)cyclohexyl)methyl)-2,3,4,4a,5,6-hexahydro-1H-benzo[b]pyrazino[1,2-d][1,4]oxazepine-9-carboxamide] | -5% | -3% | 0.00148 µM | 1.63 µM | -15% | -24% |  | 
2 | O=C1CCC(N2Cc3c(ccc4c3OCC43CCC4(CCN(C5CCC6(CC5)CN(c5ccc([C@@H]7c8ccc(O)cc8CC[C@@H]7c7ccccc7)cc5)C6)CC4)CC3)C2=O)C(=O)N1 (stereo partly drawn) [ER-P-2] | 26% | 54% |  |  | 7% | 48% | 0.00202 µM | 0.0626 µM
3 | CN(C(=O)CN1CCC2(CC1)COc1c2ccc(F)c1C(=O)N[C@H]1CCC(=O)NC1=O)C1CCC2(CC1)CN(c1ccc([C@@H]3c4ccc(O)cc4CC[C@@H]3c3ccccc3)cc1)C2 [ER-P-40, N-((S)-2,6-dioxopiperidin-3-yl)-6-fluoro-1'-(2-((2-(4-((1R,2S)-6-hydroxy-2-phenyl-1,2,3,4-tetrahydronaphthalen-1-yl)phenyl)-2-azaspiro[3.5]nonan-7-yl)(methyl)amino)-2-oxoethyl)-2H-spiro[benzofuran-3,4'-piperidine]-7-carboxamide] | 22% | 34% |  |  | -10% | -53% | 0.0284 µM | 6.21 µM
4 | O=C1CCC(Nc2ccc3c(c2)OC2(CC3)CN(C[C@H]3CC[C@@H](OC4CCN(c5ccc([C@@H]6c7ccc(O)cc7CC[C@@H]6c6ccccc6)cc5)CC4)CC3)C2)C(=O)N1 (stereo partly drawn) [ER-P-33, 3-((1-(((1S,4s)-4-((1-(4-((1R,2S)-6-hydroxy-2-phenyl-1,2,3,4-tetrahydronaphthalen-1-yl)phenyl)piperidin-4-yl)oxy)cyclohexyl)methyl)spiro[azetidine-3,2'-chroman]-7'-yl)amino)piperidine-2,6-dione] | -16% | 32% |  |  | -5% | -9% | 0.0155 µM | 2.33 µM
5 | Cn1c(=O)n(C2CCC(=O)NC2=O)c2ccc3c(c21)C1(CCN(C2CCC4(CC2)CN(c2ccc([C@@H]5c6ccc(O)cc6CC[C@@H]5c5ccccc5)cc2)C4)CC1)CO3 (stereo partly drawn) [ER-P-19, 3-(1'-(2-(4-((1R,2S)-6-hydroxy-2-phenyl-1,2,3,4-tetrahydronaphthalen-1-yl)phenyl)-2-azaspiro[3.5]nonan-7-yl)-1-methyl-2-oxo-1,2-dihydro-3H,7H-spiro[benzofuro[4,5-d]imidazole-8,4'-piperidin]-3-yl)piperidine-2,6-dione] | 6% | 15% |  |  | -8% | 7% | 0.0103 µM | 4.46 µM
6 | C[C@@H]1Cc2cc(O)ccc2C(c2c(F)cc(N3CCC(C(=O)N4CCC(N5CCC6(CC5)COc5c6ccc6c5n(C)c(=O)n6C5CCC(=O)NC5=O)CC4)CC3)cc2F)N1CC(F)F (stereo partly drawn) [ER-P-30, 3-(1'-(1-(1-(4-((3R)-2-(2,2-difluoroethyl)-6-hydroxy-3-methyl-1,2,3,4-tetrahydroisoquinolin-1-yl)-3,5-difluorophenyl)piperidine-4-carbonyl)piperidin-4-yl)-1-methyl-2-oxo-1,2-dihydro-3H,7H-spiro[benzofuro[6,7-d]imidazole-6,4'-piperidin]-3-yl)piperidine-2,6-dione] | 47% | 17% |  |  | 42% | 14% | 0.00242 µM | 4.96 µM
7 | O=C1CCC(N2Cc3c(ccc4c3OCC43CCC4(CCN(C5CCC6(CC5)CCN(c5ccc([C@@H]7c8ccc(O)cc8CC[C@@H]7c7ccccc7)cc5)CC6)CC4)CC3)C2=O)C(=O)N1 (stereo partly drawn) [ER-P-57] | 12% | 68% |  |  | 3% | 62% | 0.00319 µM | 0.0127 µM
8 | Cn1c(=O)n(C2CCC(=O)NC2=O)c2ccc3c(c21)OCC31CCN(C2CC3(CCN(c4ccc([C@@H]5c6ccc(O)cc6CC[C@@H]5c5ccccc5)cc4)CC3)C2)CC1 (stereo partly drawn) [ER-P-17, 3-(1'-(7-(4-((1R,2S)-6-hydroxy-2-phenyl-1,2,3,4-tetrahydronaphthalen-1-yl)phenyl)-7-azaspiro[3.5]nonan-2-yl)-1-methyl-2-oxo-1,2-dihydro-3H,7H-spiro[benzofuro[6,7-d]imidazole-6,4'-piperidin]-3-yl)piperidine-2,6-dione] | 22% | 30% | 0.0209 µM | 4.56 µM | 37% | 33% |  | 
9 | COc1c(C(=O)N[C@H]2CCC(=O)NC2=O)ccc2c1OC[C@H]1CN(CC3CCC(OC4CCN(c5ccc([C@@H]6c7ccc(O)cc7CC[C@@H]6c6ccccc6)cc5)CC4)CC3)CCN21 (stereo partly drawn) [ER-P-48, (R)-N-((S)-2,6-dioxopiperidin-3-yl)-3-(((1S,4S)-4-((1-(4-((1R,2S)-6-hydroxy-2-phenyl-1,2,3,4-tetrahydronaphthalen-1-yl)phenyl)piperidin-4-yl)oxy)cyclohexyl)methyl)-7-methoxy-1,2,3,4,4a,5-hexahydrobenzo[b]pyrazi no[1,2-d][1,4]oxazine-8-carboxamide] | 6% | 0% | 0.115 µM | 7.39 µM | 13% | -1% |  | 
10 | CN(C(=O)CN1CCC2(CC1)COc1c2ccc2c1n(C)c(=O)n2C1CCC(=O)NC1=O)C1CCC2(CC1)CN(c1ccc([C@@H]3c4ccc(O)cc4CC[C@@H]3c3ccccc3)cc1)C2 (stereo partly drawn) [ER-P-64, 2-(3-(2,6-dioxopiperidin-3-yl)-1-methyl-2-oxo-2,3-dihydro-1H,7H-spiro[benzofuro[6,7-d]imidazole-6,4'-piperidin]-1'-yl)-N-(2-(4-((1R,2S)-6-hydroxy-2-phenyl-1,2,3,4-tetrahydronaphthalen-1-yl)phenyl)-2-azaspiro[3.5]nonan-7-yl)-N-methylacetamide] | 56% | 80% |  |  | 46% | 57% | 0.0015 µM | 0.231 µM
